According to patent US20220105189A1, “POLYETHYLENE GLYCOL CONJUGATED DRUG AND ITS PREPARATION METHOD AND USE” (CHONGQING UPGRA BIOTECHNOLOGY CO., LTD., priority 2019, published 2022):

Tested on: human colon cancer cell colo205
Assay: Anti-tumor efficacy on subcutaneously transplanted tumor of colo205 (Experimental Example 2)
Assay type: in vivo, Balb/c nude mice
Details: colo205, Day 19; 23-161 16.06 mg/kg tail vein; PCB 1.73 mg/kg oral
Protocol: 1. Tumor strain and transplantation method of solid tumor: Human colon cancer cell colo205 was routinely preserved in the cell room of the State Key Laboratory of Molecular Oncology, Institute of Cancer Research, Chinese Academy of Medical Sciences. The tumor cells were taken out of liquid nitrogen, quickly thawed at 37° C., resuscitated and expanded, and then inoculated subcutaneously in the right axillary of healthy Balb/c mice. When the transplanted tumor grew to about 1.0 cm in diameter, the mice were sacrificed. Under aseptic conditions, the tumors were peeled off for passage by conventional methods.
2. Tumor inoculation and grouping: the tumor-bearing mice were sacrificed, the tumors were peeled off under aseptic condition and washed with normal saline several times, the necrotic tissues were removed, the well-growing tumor tissues were selected and divided into 2×2 mm tissue blocks, and the tumor tissue blocks were inoculated subcutaneously in the right axillary with a special metal trocar. After the transplantation of the tumor tissue blocks, administration in groups was carried out on the day of the transplantation.
3. […]
4. Data collection: the mice were weighed, the volume of tumors was measured, the mice were scarified on Day 19, the tumors were weighed, and the tumor inhibition rate (%) was calculated. […]

SMILES: CC(=O)c1c(C)c2cnc(Nc3ccc(N4CCNCC4)cn3)nc2n(C2CCCC2)c1=O [PCB, Palbociclib]
- Tumor inhibition rate: −5.8%
- Tumor weight (g) Average: 0.39 g
